Assay results as given in ChEMBL document CHEMBL4312017, “Synthesis and discovery of new compounds bearing coumarin scaffold for the treatment of pulmonary fibrosis” (Eur J Med Chem, 2020).
Active and inactive are the calls of the source. The rule behind the calls is not given here.

Key:
NRK-49F [1] = assay: Inhibition of TGF-beta-induced collagen accumulation in rat NRK-49F cells at 10 uM incubated for 2 days by PSR staining based microscopic analysis relative to control; assay type: functional; conditions: 48 h
[2] = Cytotoxicity against rat NRK-49F cells assessed as cell viability at 10 uM incubated for 72 hrs by MTT assay; assay type: cell-based; conditions: read-out: Activity
Mus musculus [3] = assay: Antifibrotic activity against BLM-induced C57BL/6 mouse pulmonary fibrosis model assessed as decrease in bronchial epithelial vacuolar degeneration at 50 mg/kg, po administered for 28 days and measured on day 14 and 28 by HE staining based fluorescence microscopy; assay type: functional, organism-based
Mus musculus [4] = assay: Antifibrotic activity against BLM-induced C57BL/6 mouse pulmonary fibrosis model assessed as decrease in perivascular inflammatory cell infiltration at 50 mg/kg, po administered for 28 days and measured on day 14 and 28 by HE staining based fluorescence microscopy; assay type: functional, organism-based
Mus musculus [5] = assay: Antifibrotic activity against BLM-induced C57BL/6 mouse pulmonary fibrosis model assessed as reduction in total white blood cells in BALF at 50 mg/kg, po administered for 28 days and measured on day 28; assay type: functional, organism-based
Mus musculus [6] = assay: Antifibrotic activity against BLM-induced C57BL/6 mouse pulmonary fibrosis model assessed as decrease in bronchioles inflammatory cell infiltration at 50 mg/kg, po administered for 28 days and measured on day 14 and 28 by HE staining based fluorescence microscopy; assay type: functional, organism-based
Mus musculus [7] = assay: Antifibrotic activity against BLM-induced C57BL/6 mouse pulmonary fibrosis model assessed as decrease in bronchiolar epithelial cell shedding at 50 mg/kg, po administered for 28 days and measured on day 14 and 28 by HE staining based fluorescence microscopy; assay type: functional, organism-based
Mus musculus [8] = assay: Antifibrotic activity against BLM-induced C57BL/6 mouse pulmonary fibrosis model assessed as reduction in lymphocytes in BALF at 50 mg/kg, po administered for 28 days and measured on day 28; assay type: functional, organism-based
Mus musculus [9] = assay: Antifibrotic activity against BLM-induced C57BL/6 mouse pulmonary fibrosis model assessed as decrease in destruction alveolar structure at 50 mg/kg, po administered for 28 days and measured on day 14 and 28 by HE staining based fluorescence microscopy; assay type: functional, organism-based
[10] = Oral bioavailability in Sprague-Dawley rat 10 mg/kg measured upto 24 hrs; assay type: ADME, organism-based; conditions: in vivo
Mus musculus [11] = assay: Antifibrotic activity against C57BL/6 mouse pulmonary fibrosis model assessed as reduction in bleomycin-iduced hydroxyproline level at 50 mg/kg, po administered for 28 days and measured on day 14 and 28 by spectrophotometry; assay type: functional, organism-based
NRK-49F [12] = assay: Inhibition of TGF-beta-induced collagen accumulation in rat NRK-49F cells incubated for 2 days by PSR staining based microscopic analysis; assay type: functional, cell-based; conditions: for IC50: 48 h
Mus musculus [13] = assay: Antifibrotic activity against BLM-induced C57BL/6 mouse pulmonary fibrosis model assessed as reduction in neutrophils in BALF at 50 mg/kg, po administered for 28 days and measured on day 28; assay type: functional, organism-based
Mus musculus [14] = assay: Antifibrotic activity against BLM-induced C57BL/6 mouse pulmonary fibrosis model assessed as increase in time for reduction of alveoli at 50 mg/kg, po administered for 28 days and measured on day 14 and 28 by HE staining based fluorescence microscopy; assay type: functional, organism-based
NIH3T3 = assay: Inhibition of TGF-beta-induced […] migration in mouse NIH/3T3 cells at 1 uM incubated for 24 hrs by Transwell assay; assay type: functional, cell-based

Structure (SMILES): COc1ccc2c(Nc3ccc(NC(=O)CN4CCC[C@H](C)C4)cc3)cc(=O)oc2c1
- inhibition at 10 µM (NRK-49F [1]): 72.7%
- viability at 72 h, 10 µM [2]: 90.1%

Structure (SMILES): COc1ccc2c(Oc3ccc(NC(=O)CN4CCCC4)cc3)cc(=O)oc2c1
- inhibition at 10 µM (NRK-49F [1]): 8.07%
- viability at 72 h, 10 µM [2]: 93.3%

Structure (SMILES): C[C@H]1CCCN(CC(=O)Nc2ccc(Nc3cc(=O)oc4ccccc34)cc2F)C1
- inhibition at 10 µM (NRK-49F [1]): 21.9%
- viability at 72 h, 10 µM [2]: 88.5%

Structure (SMILES): COC(=O)c1ccc2c(c1)NC(=O)/C2=C(\Nc1ccc(N(C)C(=O)CN2CCN(C)CC2)cc1)c1ccccc1 [NINTEDANIB]
- inhibition at 10 µM (NRK-49F [1]): 95.5%
- Activity (Mus musculus [3]): Active
- Activity (Mus musculus [4]): Active
- Activity (Mus musculus [5]): Active
- viability at 72 h, 10 µM [2]: 40%
- Activity (Mus musculus [6]): Active
- Activity (Mus musculus [7]): Active
- Activity (Mus musculus [8]): Active
- Activity (Mus musculus [9]): Active
- bioavailability [10]: 12%
- Activity (Mus musculus [11]): inactive
- IC50 (NRK-49F [12]): 1.1 µM
- Activity (Mus musculus [13]): Active
- Activity (Mus musculus [14]): Active

Structure (SMILES): CN1CCN(CC(=O)Nc2ccc(Oc3cc(=O)oc4ccccc34)cc2)CC1
- inhibition at 10 µM (NRK-49F [1]): 24%
- viability at 72 h, 10 µM [2]: 83.6%

Structure (SMILES): COc1ccc2c(Oc3ccc(NC(=O)CN4CCC[C@H](C)C4)cc3)cc(=O)oc2c1
- inhibition at 10 µM (NRK-49F [1]): 32.6%
- viability at 72 h, 10 µM [2]: 90.5%

Structure (SMILES): COc1ccc2c(Oc3ccc(NC(=O)CN4CCCCC4)cc3)cc(=O)oc2c1
- inhibition at 10 µM (NRK-49F [1]): 73.5%
- viability at 72 h, 10 µM [2]: 90.4%

Structure (SMILES): CN1CCN(CC(=O)Nc2ccc(Nc3cc(=O)oc4ccc([N+](=O)[O-])cc34)cc2)CC1
- inhibition at 10 µM (NRK-49F [1]): 22.3%
- viability at 72 h, 10 µM [2]: 32.1%

Structure (SMILES): O=C(CN1CCOCC1)Nc1ccc(Nc2cc(=O)oc3ccccc23)cc1F
- inhibition at 10 µM (NRK-49F [1]): 34.5%
- viability at 72 h, 10 µM [2]: 72.3%

Structure (SMILES): COc1ccc2c(Nc3ccc(NC(=O)CN4CCN(C)CC4)cc3)cc(=O)oc2c1
- inhibition at 10 µM (NRK-49F [1]): 80.2%
- viability at 72 h, 10 µM [2]: 87.2%
- inhibition (NIH3T3): Active
- inhibition (NRK-49F [12]): Dose-dependent effect
- IC50 (NRK-49F [12]): 4.35 µM

Structure (SMILES): O=C(CN1CCCC1)Nc1ccc(Nc2cc(=O)oc3ccccc23)cc1
- inhibition at 10 µM (NRK-49F [1]): 12.4%
- viability at 72 h, 10 µM [2]: 62%

Structure (SMILES): O=C(CN1CCCC1)Nc1ccc(Nc2cc(=O)oc3ccc([N+](=O)[O-])cc23)cc1
- inhibition at 10 µM (NRK-49F [1]): 17.9%
- viability at 72 h, 10 µM [2]: 45.3%

Structure (SMILES): CN1CCN(CC(=O)Nc2ccc(Nc3cc(=O)oc4ccccc34)cc2)CC1
- inhibition at 10 µM (NRK-49F [1]): 26.8%
- viability at 72 h, 10 µM [2]: 87.5%

Structure (SMILES): COc1ccc2c(Oc3ccc(NC(=O)CN4CCN(C)CC4)cc3)cc(=O)oc2c1
- inhibition at 10 µM (NRK-49F [1]): 65.4%
- viability at 72 h, 10 µM [2]: 95.6%

Structure (SMILES): COc1ccc2c(Oc3ccc(NC(=O)CN4CCOCC4)cc3)cc(=O)oc2c1
- inhibition at 10 µM (NRK-49F [1]): 78.3%
- viability at 72 h, 10 µM [2]: 96.5%
- inhibition (NIH3T3): Active
- inhibition (NRK-49F [12]): Dose-dependent effect
- IC50 (NRK-49F [12]): 3.71 µM

Structure (SMILES): CN1CCN(CC(=O)Nc2ccc(Nc3cc(=O)oc4ccccc34)cc2F)CC1
- inhibition at 10 µM (NRK-49F [1]): 36.8%
- viability at 72 h, 10 µM [2]: 78.1%

Structure (SMILES): COc1ccc2c(Nc3ccc(NC(=O)CN4CCCC4)cc3)cc(=O)oc2c1
- inhibition at 10 µM (NRK-49F [1]): 15.7%
- viability at 72 h, 10 µM [2]: 52%

Structure (SMILES): O=C(CN1CCOCC1)Nc1ccc(Nc2cc(=O)oc3ccccc23)cc1
- inhibition at 10 µM (NRK-49F [1]): 41.8%
- viability at 72 h, 10 µM [2]: 75.2%

Structure (SMILES): O=C(CN1CCOCC1)Nc1ccc(Nc2cc(=O)oc3ccc([N+](=O)[O-])cc23)cc1
- inhibition at 10 µM (NRK-49F [1]): 31.7%
- viability at 72 h, 10 µM [2]: 23.1%

Structure (SMILES): O=C(CN1CCCC1)Nc1ccc(Oc2cc(=O)oc3ccccc23)cc1
- inhibition at 10 µM (NRK-49F [1]): 18.8%
- viability at 72 h, 10 µM [2]: 82.9%

Structure (SMILES): O=C(CN1CCOCC1)Nc1ccc(Oc2cc(=O)oc3ccccc23)cc1
- inhibition at 10 µM (NRK-49F [1]): 34.6%
- viability at 72 h, 10 µM [2]: 97%

Structure (SMILES): O=C(CN1CCCCC1)Nc1ccc(Nc2cc(=O)oc3ccccc23)cc1F
- inhibition at 10 µM (NRK-49F [1]): 11.3%
- viability at 72 h, 10 µM [2]: 67.7%

Structure (SMILES): COc1ccc2c(Nc3ccc(NC(=O)CN4CCCCC4)cc3)cc(=O)oc2c1
- inhibition at 10 µM (NRK-49F [1]): 74.5%
- viability at 72 h, 10 µM [2]: 41.3%

Structure (SMILES): COc1ccc2c(Nc3ccc(NC(=O)CN4CCOCC4)cc3)cc(=O)oc2c1
- inhibition at 10 µM (NRK-49F [1]): 72.9%
- viability at 72 h, 10 µM [2]: 89.1%

Structure (SMILES): O=C(CN1CCCC1)Nc1ccc(Nc2cc(=O)oc3ccccc23)cc1F
- inhibition at 10 µM (NRK-49F [1]): 33.3%
- viability at 72 h, 10 µM [2]: 74.3%

Structure (SMILES): C[C@H]1CCCN(CC(=O)Nc2ccc(Nc3cc(=O)oc4ccc([N+](=O)[O-])cc34)cc2)C1
- inhibition at 10 µM (NRK-49F [1]): 28.7%
- viability at 72 h, 10 µM [2]: 17.8%

Structure (SMILES): O=C(CN1CCCCC1)Nc1ccc(Nc2cc(=O)oc3ccccc23)cc1
- inhibition at 10 µM (NRK-49F [1]): 75.2%
- viability at 72 h, 10 µM [2]: 43.6%

Structure (SMILES): O=C(CN1CCCCC1)Nc1ccc(Nc2cc(=O)oc3ccc([N+](=O)[O-])cc23)cc1
- inhibition at 10 µM (NRK-49F [1]): 15.4%
- viability at 72 h, 10 µM [2]: 20.3%

Structure (SMILES): C[C@H]1CCCN(CC(=O)Nc2ccc(Oc3cc(=O)oc4ccccc34)cc2)C1
- inhibition at 10 µM (NRK-49F [1]): 75.3%
- viability at 72 h, 10 µM [2]: 98%

Structure (SMILES): C[C@H]1CCCN(CC(=O)Nc2ccc(Nc3cc(=O)oc4ccccc34)cc2)C1
- inhibition at 10 µM (NRK-49F [1]): 80.2%
- viability at 72 h, 10 µM [2]: 91.5%
- inhibition (NIH3T3): Active
- inhibition (NRK-49F [12]): Dose-dependent effect
- IC50 (NRK-49F [12]): 3.96 µM
